Data as given in ChEMBL document CHEMBL5131391, “One-pot three-component synthesis of novel pyrazolo[3,4-b]pyridines as potent antileukemic agents” (Eur J Med Chem, 2022).
pIC50: −log10 of the molar value.

System: K562
Test: Antiproliferative activity against human K562 cells assessed as reduction in cell viability incubated for 72 hrs by resazurin dye based assay
Format: functional
Settings: K562, 72 h

| SMILES | pIC50 |
| --- | --- |
| N#Cc1c(-c2ccc(Cl)cc2)nc2c(c(-c3ccccc3)nn2-c2ccccc2)c1-c1ccc(O)cc1 | 4.68 |

System: RPMI-8226
Test: Antiproliferative activity against human RPMI-8226 cells assessed as growth inhibition at 10 uM measured after 48 hrs by NCI protocol based SRB assay relative to control
Format: functional
Settings: read-out: GI

| SMILES | inhibition of growth at 10 µM [%] |
| --- | --- |
| N#Cc1c(-c2ccc(Cl)cc2)nc2c(c(-c3ccccc3)nn2-c2ccccc2)c1-c1ccc(O)cc1 | 83 |

System: MOLT-4
Test: Antiproliferative activity against human MOLT-4 cells assessed as growth inhibition at 10 uM measured after 48 hrs by NCI protocol based SRB assay relative to control
Format: functional
Settings: read-out: GI

| SMILES | inhibition of growth at 10 µM [%] |
| --- | --- |
| N#Cc1c(-c2ccc(Cl)cc2)nc2c(c(-c3ccccc3)nn2-c2ccccc2)c1-c1ccc(O)cc1 | 76 |

System: HL-60(TB)
Test: Antiproliferative activity against human HL-60(TB) cells assessed as growth inhibition at 10 uM measured after 48 hrs by NCI protocol based SRB assay relative to control
Format: functional
Settings: read-out: GI

| SMILES | inhibition of growth at 10 µM [%] |
| --- | --- |
| N#Cc1c(-c2ccc(Cl)cc2)nc2c(c(-c3ccccc3)nn2-c2ccccc2)c1-c1ccc(O)cc1 | 68 |

System: K562
Test: Antiproliferative activity against human K562 cells assessed as growth inhibition at 10 uM measured after 48 hrs by NCI protocol based SRB assay relative to control
Format: functional
Settings: read-out: GI

| SMILES | inhibition of growth at 10 µM [%] |
| --- | --- |
| N#Cc1c(-c2ccc(Cl)cc2)nc2c(c(-c3ccccc3)nn2-c2ccccc2)c1-c1ccc(O)cc1 | 92 |

System: HOP-92
Test: Antiproliferative activity against human HOP-92 cells assessed as growth inhibition at 10 uM measured after 48 hrs by NCI protocol based SRB assay relative to control
Format: functional
Settings: read-out: GI

| SMILES | inhibition of growth at 10 µM [%] |
| --- | --- |
| N#Cc1c(-c2ccc(Cl)cc2)nc2c(c(-c3ccccc3)nn2-c2ccccc2)c1-c1ccc(O)cc1 | 44 |

System: A549
Test: Antiproliferative activity against human A549 cells assessed as growth inhibition at 10 uM measured after 48 hrs by NCI protocol based SRB assay relative to control
Format: functional
Settings: read-out: GI

| SMILES | inhibition of growth at 10 µM [%] |
| --- | --- |
| N#Cc1c(-c2ccc(Cl)cc2)nc2c(c(-c3ccccc3)nn2-c2ccccc2)c1-c1ccc(O)cc1 | 59 |

System: EKVX
Test: Antiproliferative activity against human EKVX cells assessed as growth inhibition at 10 uM measured after 48 hrs by NCI protocol based SRB assay relative to control
Format: functional
Settings: read-out: GI

| SMILES | inhibition of growth at 10 µM [%] |
| --- | --- |
| N#Cc1c(-c2ccc(Cl)cc2)nc2c(c(-c3ccccc3)nn2-c2ccccc2)c1-c1ccc(O)cc1 | 33 |

System: NCI-H460
Test: Antiproliferative activity against human NCI-H460 cells assessed as growth inhibition at 10 uM measured after 48 hrs by NCI protocol based SRB assay relative to control
Format: functional
Settings: read-out: GI

| SMILES | inhibition of growth at 10 µM [%] |
| --- | --- |
| N#Cc1c(-c2ccc(Cl)cc2)nc2c(c(-c3ccccc3)nn2-c2ccccc2)c1-c1ccc(O)cc1 | 75 |

System: NCI-H522
Test: Antiproliferative activity against human NCI-H522 cells assessed as growth inhibition at 10 uM measured after 48 hrs by NCI protocol based SRB assay relative to control
Format: functional
Settings: read-out: GI

| SMILES | inhibition of growth at 10 µM [%] |
| --- | --- |
| N#Cc1c(-c2ccc(Cl)cc2)nc2c(c(-c3ccccc3)nn2-c2ccccc2)c1-c1ccc(O)cc1 | 45 |

System: NCI-H322M
Test: Antiproliferative activity against human NCI-H322M cells assessed as growth inhibition at 10 uM measured after 48 hrs by NCI protocol based SRB assay relative to control
Format: functional
Settings: read-out: GI

| SMILES | inhibition of growth at 10 µM [%] |
| --- | --- |
| N#Cc1c(-c2ccc(Cl)cc2)nc2c(c(-c3ccccc3)nn2-c2ccccc2)c1-c1ccc(O)cc1 | 30 |

System: NCI-H23
Test: Antiproliferative activity against human NCI-H23 cells assessed as growth inhibition at 10 uM measured after 48 hrs by NCI protocol based SRB assay relative to control
Format: functional
Settings: read-out: GI

| SMILES | inhibition of growth at 10 µM [%] |
| --- | --- |
| N#Cc1c(-c2ccc(Cl)cc2)nc2c(c(-c3ccccc3)nn2-c2ccccc2)c1-c1ccc(O)cc1 | 52 |

System: HCT-15
Test: Antiproliferative activity against human HCT-15 cells assessed as growth inhibition at 10 uM measured after 48 hrs by NCI protocol based SRB assay relative to control
Format: functional
Settings: read-out: GI

| SMILES | inhibition of growth at 10 µM [%] |
| --- | --- |
| N#Cc1c(-c2ccc(Cl)cc2)nc2c(c(-c3ccccc3)nn2-c2ccccc2)c1-c1ccc(O)cc1 | 73 |

System: SW-620
Test: Antiproliferative activity against human SW-620 cells assessed as growth inhibition at 10 uM measured after 48 hrs by NCI protocol based SRB assay relative to control
Format: functional
Settings: read-out: GI

| SMILES | inhibition of growth at 10 µM [%] |
| --- | --- |
| N#Cc1c(-c2ccc(Cl)cc2)nc2c(c(-c3ccccc3)nn2-c2ccccc2)c1-c1ccc(O)cc1 | 46 |

System: SF-268
Test: Antiproliferative activity against human SF-268 cells assessed as growth inhibition at 10 uM measured after 48 hrs by NCI protocol based SRB assay relative to control
Format: functional
Settings: read-out: GI

| SMILES | inhibition of growth at 10 µM [%] |
| --- | --- |
| N#Cc1c(-c2ccc(Cl)cc2)nc2c(c(-c3ccccc3)nn2-c2ccccc2)c1-c1ccc(O)cc1 | 54 |

System: SNB-75
Test: Antiproliferative activity against human SNB-75 cells assessed as growth inhibition at 10 uM measured after 48 hrs by NCI protocol based SRB assay relative to control
Format: functional
Settings: read-out: GI

| SMILES | inhibition of growth at 10 µM [%] |
| --- | --- |
| N#Cc1c(-c2ccc(Cl)cc2)nc2c(c(-c3ccccc3)nn2-c2ccccc2)c1-c1ccc(O)cc1 | 58 |

System: SNB-19
Test: Antiproliferative activity against human SNB-19 cells assessed as growth inhibition at 10 uM measured after 48 hrs by NCI protocol based SRB assay relative to control
Format: functional
Settings: read-out: GI

| SMILES | inhibition of growth at 10 µM [%] |
| --- | --- |
| N#Cc1c(-c2ccc(Cl)cc2)nc2c(c(-c3ccccc3)nn2-c2ccccc2)c1-c1ccc(O)cc1 | 35 |

System: U-251
Test: Antiproliferative activity against human U-251 cells assessed as growth inhibition at 10 uM measured after 48 hrs by NCI protocol based SRB assay relative to control
Format: functional
Settings: read-out: GI

| SMILES | inhibition of growth at 10 µM [%] |
| --- | --- |
| N#Cc1c(-c2ccc(Cl)cc2)nc2c(c(-c3ccccc3)nn2-c2ccccc2)c1-c1ccc(O)cc1 | 67 |
